Assay results: patent EP4635500A1, “THERAPEUTIC AGENT FOR BACTERIAL INFECTION” (Sumitomo Pharma Co., Ltd., priority 2022, dated 2024)
Where “and” joins values, the source holds several entries; their conditions need not be identical. Identical values can stand only once. Like-named read-outs stand apart in the source and are kept apart here.

Key:
A. baumannii = test: MIC, broth microdilution, CDC/FDA Antibiotic Resistance Isolate Bank (Example 7, Tables 9, 13, 14); format: cell-based, Acinetobacter baumannii; details: for MIC: read-out: MIC
Enterobacterales = test: MIC, broth microdilution, CDC/FDA Antibiotic Resistance Isolate Bank (Example 7, Tables 8, 11, 12); format: cell-based

C[C@@H](O)[C@H]1C(=O)N2C(C(=O)O)=C(S[C@@H]3CN[C@H](C(=O)N(C)C)C3)[C@H](C)[C@H]12 [MEPM, meropenem]
0.12 µg/mL: MIC (Enterobacterales; Enterobacter cloacae, KUB No. 5529, AR Bank # 32, KPC-3, read-out: MIC) | MIC (Enterobacterales; Enterobacter cloacae, KUB No. 5569, AR Bank # 72, no carbapenemase gene, read-out: MIC) | MIC (Enterobacterales; Enterobacter cloacae, KUB No. 5778, AR Bank# 432, no carbapenemase genes, read-out: MIC) | MIC (Enterobacterales; Klebsiella aerogenes, Enterobacter aerogenes, KUB No. 5559, AR Bank # 62, no carbapenemase gene, read-out: MIC)
8 µg/mL: MIC (A. baumannii; Acinetobacter baumannii, A. baumannii KUB No. 5567, AR Bank #70, OXA-58, OXA-100) | MIC (A. baumannii; Acinetobacter baumannii, A. baumannii KUB No. 5714, AR Bank #281, OXA-82) | MIC (A. baumannii; Acinetobacter baumannii, A. baumannii KUB No. 5740, AR Bank #307, OXA-66, OXA-237) | MIC (Enterobacterales; Enterobacter cloacae, KUB No. 5633, AR Bank# 136, KPC-3, read-out: MIC) | MIC (Enterobacterales; Escherichia coli, KUB No. 5646, AR Bank# 149, NDM-7, read-out: MIC) | MIC (Enterobacterales; Escherichia coli, KUB No. 5648, AR Bank# 151, NDM-5, read-out: MIC) | MIC (Enterobacterales; Klebsiella oxytoca, KUB No. 5568, AR Bank # 71, no carbapenemase gene, read-out: MIC)
4 µg/mL: MIC (A. baumannii; Acinetobacter baumannii, A. baumannii KUB No. 5709, AR Bank #276, no carbapenemase genes (-)) | MIC (A. baumannii; Acinetobacter baumannii, A. baumannii KUB No. 5745, AR Bank #312, OXA-69) | MIC (Enterobacterales; Enterobacter cloacae, KUB No. 5651, AR Bank# 154, VIM-1, read-out: MIC) | MIC (Enterobacterales; Enterobacter cloacae, KUB No. 5660, AR Bank# 163, KPC-2, read-out: MIC) | MIC (Enterobacterales; Enterobacter cloacae, KUB No. 5808, AR Bank# 502, IMP-8, read-out: MIC)
1 µg/mL: MIC (Enterobacterales; Enterobacter cloacae, KUB No. 5590, AR Bank # 93, KPC-6, read-out: MIC) | MIC (Enterobacterales; Enterobacter cloacae, KUB No. 5762, AR Bank# 366, KPC-2, read-out: MIC) | MIC (Enterobacterales; Escherichia coli, KUB No. 5558, AR Bank # 61, KPC-3 (line continued in Table 8-2), read-out: MIC) | MIC (Enterobacterales; Klebsiella aerogenes, Enterobacter aerogenes, KUB No. 5658, AR Bank# 161, IMP-4, read-out: MIC)
≤ 0.06 µg/mL: MIC (Enterobacterales; Enterobacter cloacae, KUB No. 5557, AR Bank # 60, no carbapenemase gene, read-out: MIC) | MIC (Enterobacterales; Enterobacter cloacae, KUB No. 5570, AR Bank # 73, no carbapenemase gene, read-out: MIC) | MIC (Enterobacterales; Escherichia coli, KUB No. 5764, AR Bank# 368, no carbapenemase genes, read-out: MIC) | MIC (Enterobacterales; Escherichia coli, KUB No. 5765, AR Bank# 369, no carbapenemase genes, read-out: MIC) | MIC (Enterobacterales; Escherichia coli, KUB No. 5766, AR Bank# 370, no carbapenemase genes, read-out: MIC) | MIC (Enterobacterales; Escherichia coli, KUB No. 5767, AR Bank# 371, no carbapenemase genes, read-out: MIC) | MIC (Enterobacterales; Escherichia coli, KUB No. 5768, AR Bank# 372, no carbapenemase genes, read-out: MIC) | MIC (Enterobacterales; Escherichia coli, KUB No. 5769, AR Bank# 373, no carbapenemase genes, read-out: MIC) | MIC (Enterobacterales; Escherichia coli, KUB No. 5770, AR Bank# 374, no carbapenemase genes, read-out: MIC) | MIC (Enterobacterales; Escherichia coli, KUB No. 5774, AR Bank# 378, no carbapenemase genes, read-out: MIC) | MIC (Enterobacterales; Escherichia coli, KUB No. 5779, AR Bank# 433, no carbapenemase genes, read-out: MIC) | MIC (Enterobacterales; Escherichia coli, KUB No. 5780, AR Bank# 434, no carbapenemase genes, read-out: MIC) | MIC (Enterobacterales; Escherichia coli, KUB No. 5782, AR Bank# 436, no carbapenemase genes, read-out: MIC) | MIC (Enterobacterales; Escherichia coli, KUB No. 5783, AR Bank# 437, no carbapenemase genes, read-out: MIC) | MIC (Enterobacterales; Klebsiella aerogenes, Enterobacter aerogenes, KUB No. 5777, AR Bank# 431, no carbapenemase genes, read-out: MIC)
> 32 µg/mL: MIC (Enterobacterales; Enterobacter cloacae, KUB No. 5535, AR Bank # 38, NDM-1, read-out: MIC) | MIC (Enterobacterales; Escherichia coli, KUB No. 5647, AR Bank# 150, NDM-5, read-out: MIC)
32 µg/mL: MIC50 (A. baumannii; 55 isolates of A. baumannii) | MIC (A. baumannii; Acinetobacter baumannii, A. baumannii KUB No. 5575, AR Bank #78, OXA-71) | MIC (A. baumannii; Acinetobacter baumannii, A. baumannii KUB No. 5706, AR Bank #273, OXA-23, OXA-66) | MIC (A. baumannii; Acinetobacter baumannii, A. baumannii KUB No. 5708, AR Bank #275, OXA-23, OXA-66) | MIC (A. baumannii; Acinetobacter baumannii, A. baumannii KUB No. 5711, AR Bank #278, OXA-23, OXA-66) | MIC (A. baumannii; Acinetobacter baumannii, A. baumannii KUB No. 5712, AR Bank #279, OXA-23, OXA-66) | MIC (A. baumannii; Acinetobacter baumannii, A. baumannii KUB No. 5715, AR Bank #282, OXA-23, OXA-66) | MIC (A. baumannii; Acinetobacter baumannii, A. baumannii KUB No. 5716, AR Bank #283, OXA-23, OXA-66) | MIC (A. baumannii; Acinetobacter baumannii, A. baumannii KUB No. 5723, AR Bank #90, OXA-23, OXA-66) | MIC (A. baumannii; Acinetobacter baumannii, A. baumannii KUB No. 5724, AR Bank #291, OXA-23, OXA-66) | MIC (A. baumannii; Acinetobacter baumannii, A. baumannii KUB No. 5727, AR Bank #294, OXA-23, OXA-65) | MIC (A. baumannii; Acinetobacter baumannii, A. baumannii KUB No. 5728, AR Bank #295, OXA-23, OXA-66) | MIC (A. baumannii; Acinetobacter baumannii, A. baumannii KUB No. 5732, AR Bank #299, OXA-23, OXA-203) | MIC (A. baumannii; Acinetobacter baumannii, A. baumannii KUB No. 5735, AR Bank #302, OXA-23, OXA-82) | MIC (A. baumannii; Acinetobacter baumannii, A. baumannii KUB No. 5742, AR Bank #309, OXA-23, OXA-82) | MIC (A. baumannii; Acinetobacter baumannii, A. baumannii KUB No. 5743, AR Bank #310, OXA-23, OXA-82) | MIC (A. baumannii; Acinetobacter baumannii, A. baumannii KUB No. 5744, AR Bank #311, OXA-23, OXA-82) | MIC50 (A. baumannii; Acinetobacter baumannii, 55 strains of A. baumannii, read-out: MIC50) | MIC (Enterobacterales; Enterobacter cloacae, Enterobacter cloacae complex, KUB No. 5661, AR Bank# 164, NMC-A, read-out: MIC) | MIC (Enterobacterales; Escherichia coli, KUB No. 5634, AR Bank# 137, NDM-6, read-out: MIC) | MIC (Enterobacterales; Escherichia coli, KUB No. 5659, AR Bank# 162, NDM-7, read-out: MIC) | MIC (Enterobacterales; Escherichia coli, KUB No. 5781, AR Bank# 435, NDM-1, read-out: MIC)
0.5 µg/mL: MIC (Enterobacterales; Enterobacter cloacae, KUB No. 5547, AR Bank # 50, KPC-4, read-out: MIC) | MIC (Enterobacterales; Enterobacter cloacae, KUB No. 5763, AR Bank# 367, no carbapenemase genes, read-out: MIC) | MIC (Enterobacterales; Enterobacter cloacae, KUB No. 5807, AR Bank# 501, VIM-1, read-out: MIC) | MIC (Enterobacterales; Klebsiella aerogenes, Enterobacter aerogenes, KUB No. 5571, AR Bank # 74, OXA-48, read-out: MIC)
0.25 µg/mL: MIC (Enterobacterales; Enterobacter cloacae, KUB No. 5562, AR Bank # 65, no carbapenemase gene, read-out: MIC) | MIC (Enterobacterales; Klebsiella ornithinolytica)
2 µg/mL: MIC (Enterobacterales; Enterobacte (name cut at the end of the table), KUB No. 5629, AR Bank # 132, NMC (cut), read-out: MIC) | MIC (Enterobacterales; Enterobacter cloacae, KUB No. 5550, AR Bank # 53, KPC-3, read-out: MIC) | MIC (Enterobacterales; Enterobacter cloacae, KUB No. 5761, AR Bank# 365, KPC-2, read-out: MIC) | MIC (Enterobacterales; Escherichia coli, KUB No. 5611, AR Bank # 114, KPC-3, read-out: MIC) | MIC (Enterobacterales; Escherichia coli, KUB No. 5796, AR Bank# 452, NDM-5, read-out: MIC)
64 µg/mL: MIC (A. baumannii; Acinetobacter baumannii, A. baumannii KUB No. 5729, AR Bank #296, OXA-23, OXA-223) | MIC (A. baumannii; Acinetobacter baumannii, A. baumannii KUB No. 5737, AR Bank #304, OXA-66, OXA-72)
16 µg/mL: MIC (A. baumannii; Acinetobacter baumannii, A. baumannii KUB No. 5721, AR Bank #288, OXA-23, OXA-66) | MIC (A. baumannii; Acinetobacter baumannii, A. baumannii KUB No. 5730, AR Bank #297, OXA-23, OXA-66) | MIC (A. baumannii; Acinetobacter baumannii, A. baumannii KUB No. 5731, AR Bank #298, OXA-66, OXA-237) | MIC (A. baumannii; Acinetobacter baumannii, A. baumannii KUB No. 5736, AR Bank #303, OXA-23, OXA-66) | MIC (A. baumannii; Acinetobacter baumannii, A. baumannii KUB No. 5741, AR Bank #308, OXA-71) | MIC (A. baumannii; Acinetobacter baumannii, A. baumannii KUB No. 5746, AR Bank #313, OXA-23, OXA-69) | MIC (Enterobacterales; Citrobacter freundii) | MIC (Enterobacterales; Enterobacter cloacae, KUB No. 5792, AR Bank# 448, NDM-1, read-out: MIC) | MIC (Enterobacterales; Escherichia coli, KUB No. 5794, AR Bank# 450, no carbapenemase genes, read-out: MIC)
32 µg/mL and >32 µg/mL: MIC90 (Enterobacterales)
